The results in this text go back to patent US10245275B2 (ViiV HEALTHCARE UK (NO.4) LIMITED, priority 2014, dated 2019).

Where two headings read alike, the source gives them in different places. Where only a bound is given, the exact number is not on record here.

For test [1], the system named is WT (wild-type HIV virus; recombinant NL4-3 virus). In words: microbe, parasite or virus in culture. The class given is cell-based, HIV-1. The gist of the method: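 MT-2 cells infected 4-5 days with NL4-3 carrying Renilla luciferase in place of part of nef (Gag P373S), virus made by 293T transfection, with serial inhibitor dilutions. Antiviral activity read as luciferase activity by a modified dual-luciferase read-out.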

In test [2] the test system is HIV-1 NL4-3 gag A364V virus. Put plainly: microbe, parasite or virus in culture. The format is cell-based. The gist of the method:
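Recombinant NL4-3 reporter virus with Renilla luciferase replacing part of nef, made by transfection of 293T cells. MT-2 cells infected for 4-5 days with serial inhibitor dilutions; antiviral activity quantified by luciferase activity.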

[3] abbreviates: Human immunodeficiency virus 1, NL43, MT2, read-out: WT (EC50, uM), Table 1 regular screen, class symbol.
Where [4] appears, read: Human immunodeficiency virus 1, NL43, MT2, read-out: A364V (EC50, uM), Table 1 regular screen, class symbol.
[5] abbreviates: Human immunodeficiency virus 1, NL43, MT2, read-out: WT (EC50, uM), Table 1 regular screen, MT-2 cells, luciferase readout.
Where [6] appears, read: Human immunodeficiency virus 1, NL43, MT2, read-out: A364V (EC50, uM), Table 1 regular screen, MT-2 cells, luciferase readout.

`C=C(C)[C@@H]1CC[C@]2(CNCCCN3CCS(=O)(=O)CC3)CC[C@]3(C)[C@H](CC[C@@H]4[C@@]5(C)CC=C(C6=CC[C@@](CF)(C(=O)O)CC6)C(C)(C)[C@@H]5CC[C@]43C)[C@@H]12` [Example 11, (R)-4-((1R,3aS,5aR,5bR,7aR,11aS,11bR,13aR,13bR)-3a-(((3-(1,1-dioxidothiomorpholino)propyl)amino)methyl)-5a,5b, 8,8,11a-pentamethyl-1-(prop-1-en-2-yl)-2,3,3a,4,5,5a,5b,6,7,7a,8,11,11a,11b,12,13,13a,13b-octadecahydro-1H-cyclopenta[a]chrysen-9-yl)-1-(fluoromethyl)cyclohex-3-enecarboxylic acid]: the EC50 in test [1] (setting [3]) and in test [2] (setting [4]) was < 0.05 µM each time.
For `C=C(C)[C@@H]1CC[C@]2(CN(CCCN3CCS(=O)(=O)CC3)C(C)=O)CC[C@]3(C)[C@H](CC[C@@H]4[C@@]5(C)CC=C(C6=CC[C@@](CF)(C(=O)O)CC6)C(C)(C)[C@@H]5CC[C@]43C)[C@@H]12` [Example 12, (R)-4-((1R,3aS,5aR,5bR,7aR,11aS,11bR,13aR,13bR)-3a-((N-(3-(1,1-dioxidothiomorpholino)propyl)acetamido)methyl)-5a,5b,8,8,11a-pentamethyl-1-(prop-1-en-2-yl)-2,3,3a,4,5,5a,5b,6,7,7a,8,11,11a,11b,12,13,13a,13b-octadecahydro-1H-cyclopenta[a]chrysen-9-yl)-1-(fluoromethyl)cyclohex-3-enecarboxylic acid], the values for the EC50 in test [1] (setting [3]) and in test [2] (setting [4]) were < 0.05 µM and > 0.05 µM, respectively.
`C=C(C)[C@@H]1CC[C@]2(NCCN3CCC(C(=O)OCC)(C(=O)OCC)CC3)CC[C@]3(C)[C@H](CC[C@@H]4[C@@]5(C)CC=C(C6=CC[C@@](CF)(C(=O)O)CC6)C(C)(C)[C@@H]5CC[C@]43C)[C@@H]12` [Example 13, (R)-4-((1R,3aS,5aR,5bR,7aR,11aS,11bR,13aR,13bR)-3a-((2-(4,4-bis(ethoxycarbonyl)piperidin-1-yl)ethyl)amino)-5a,5b, 8,8,11a-pentamethyl-1-(prop-1-en-2-yl)-2,3,3a,4,5,5a,5b,6,7,7a,8,11,11a,11b,12,13,13a,13b-octadecahydro-1H-cyclopenta[a]chrysen-9-yl)-1-(fluoromethyl)cyclohex-3-enecarboxylic acid]: the EC50 came out at 0.0188 µM in test [1] (setting [5]) and 0.196 µM in test [2] (setting [6]).
Consider `C=C(C)[C@@H]1CC[C@]2(NCCN3CCC(C(=O)O)(C(=O)O)CC3)CC[C@]3(C)[C@H](CC[C@@H]4[C@@]5(C)CC=C(C6=CC[C@@](CF)(C(=O)O)CC6)C(C)(C)[C@@H]5CC[C@]43C)[C@@H]12` [Example 16, 1-(2-(((1R,3aS,5aR,5bR,7aR,11aS,11bR,13aR,13bR)-9-((R)-4-carboxy-4-(fluoromethyl)cyclohex-1-en-1-yl)-5a,5b,8,8,11a-pentamethyl-1-(prop-1-en-2-yl)-2,3,3a,4,5,5a,5b,6,7,7a,8,11,11a,11b,12,13,13a,13b-octadecahydro-1H-cyclopenta[a]chrysen-3a-yl)amino)ethyl)piperidine-4,4-dicarboxylic acid], for which the figures for the EC50 in test [1] (setting [5]) and in test [2] (setting [6]) were 0.43 µM and 3 µM, respectively.
As for `C=C(C)[C@@H]1CC[C@]2(NCCN3CCC(C(=O)O)(C(=O)OCC)CC3)CC[C@]3(C)[C@H](CC[C@@H]4[C@@]5(C)CC=C(C6=CC[C@@](CF)(C(=O)O)CC6)C(C)(C)[C@@H]5CC[C@]43C)[C@@H]12` [Example 17], the EC50 was determined as 0.0194 µM in test [1] (setting [5]) and 3 µM in test [2] (setting [6]).
`C=C(C)[C@@H]1CC[C@]2(NCCN3CCSCC3C(=O)O)CC[C@]3(C)[C@H](CC[C@@H]4[C@@]5(C)CC=C(C6=CC[C@@](CF)(C(=O)O)CC6)C(C)(C)[C@@H]5CC[C@]43C)[C@@H]12` (stereo partly drawn) [Example 18, 4-(2-(((1R,3aS,5aR,5bR,7aR,11aS,11bR,13aR,13bR)-9-((R)-4-carboxy-4-(fluoromethyl)cyclohex-1-en-1-yl)-5a,5b,8,8,11a-pentamethyl-1-(prop-1-en-2-yl)-2,3,3a,4,5,5a,5b,6,7,7a,8,11,11a,11b,12,13,13a,13b-octadecahydro-1H-cyclopenta[a]chrysen-3a-yl)amino)ethyl)thiomorpholine-3-carboxylic acid]: the EC50 in test [1] (setting [5]) is 0.0243 µM; in test [2] (setting [6]), 3 µM.
In the case of `C=C(C)[C@@H]1CC[C@]2(NCCO)CC[C@]3(C)[C@H](CC[C@@H]4[C@@]5(C)CC=C(C6=CC[C@@](CF)(C(=O)O)CC6)C(C)(C)[C@@H]5CC[C@]43C)[C@@H]12` [Example 19, (R)-1-(fluoromethyl)-4-((1R,3aS,5aR,5bR,7aR,11aS,11bR,13aR,13bR)-3a-((2-hydroxyethyl)amino)-5a,5b,8,8,11a-pentamethyl-1-(prop-1-en-2-yl)-2,3,3a,4,5,5a,5b,6,7,7a,8,11,11a,11b,12,13,13a,13b-octadecahydro-1H-cyclopenta[a]chrysen-9-yl)cyclohex-3-enecarboxylic acid], the EC50 was < 0.05 µM in test [1] (Human immunodeficiency virus 1, NL43, MT2, read-out: WT (EC50, uM)) and > 0.05 µM in test [2] (Human immunodeficiency virus 1, NL43, MT2, read-out: A364V (EC50, uM)).
Turning to `C=C(C)[C@@H]1CC[C@]2(NCCN3CCCC3=O)CC[C@]3(C)[C@H](CC[C@@H]4[C@@]5(C)CC=C(C6=CC[C@](CF)(C(=O)O)CC6)C(C)(C)[C@@H]5CC[C@]43C)[C@@H]12` [Example 20, (S)-1-(fluoromethyl)-4-((1R,3aS,5aR,5bR,7aR,11aS,11bR,13aR,13bR)-5a,5b, 8,8,11a-pentamethyl-3a-((2-(2-oxopyrrolidin-1-yl)ethyl)amino)-1-(prop-1-en-2-yl)-2,3,3a,4,5,5a,5b,6,7,7a,8,11,11a,11b,12,13,13a,13b-octadecahydro-1H-cyclopenta[a]chrysen-9-yl)cyclohex-3-enecarboxylic acid], the EC50 was determined as 0.00253 µM in test [1] (setting [5]) and 0.129 µM in test [2] (setting [6]).
Turning to `C=C(C)[C@@H]1CC[C@]2(NCCCN3CCCC3=O)CC[C@]3(C)[C@H](CC[C@@H]4[C@@]5(C)CC=C(C6=CC[C@](CF)(C(=O)O)CC6)C(C)(C)[C@@H]5CC[C@]43C)[C@@H]12` [Example 21, (S)-1-(fluoromethyl)-4-((1R,3aS,5aR,5bR,7aR,11aS,11bR,13aR,13bR)-5a,5b,8,8,11a-pentamethyl-3a-((3-(2-oxopyrrolidin-1-yl)propyl)amino)-1-(prop-1-en-2-yl)-2,3,3a,4,5,5a,5b,6,7,7a,8,11,11a,11b,12,13,13a,13b-octadecahydro-1H-cyclopenta[a]chrysen-9-yl)cyclohex-3-enecarboxylic acid], the EC50 was < 0.05 µM in test [1] (setting [3]) and > 0.05 µM in test [2] (setting [4]).
Consider `CC(C)[C@@H]1CC[C@]2(NCCN3CCS(=O)(=O)CC3)CC[C@]3(C)[C@H](CC[C@@H]4[C@@]5(C)CC=C(C6=CC[C@@](CF)(C(=O)O)CC6)C(C)(C)[C@@H]5CC[C@]43C)[C@@H]12` [Example 22, (R)-4-((1S,3aS,5aR,5bR,7aR,11aS,11bR,13aR,13bR)-3a-((2-(1,1-dioxidothiomorpholino)ethyl)amino)-1-isopropyl-5a,5b, 8,8,11a-pentamethyl-2,3,3a,4,5,5a,5b,6,7,7a,8,11,11a,11b,12,13,13a,13b-octadecahydro-1H-cyclopenta[a]chrysen-9-yl)-1-(fluoromethyl)cyclohex-3-enecarboxylic acid], for which the EC50 in test [1] (setting [5]) worked out at 0.00134 µM; in test [2] (setting [6]) it was 0.0513 µM.
Take `CC(C)[C@@H]1CC[C@]2(NCCN3CCS(=O)(=O)CC3)CC[C@]3(C)[C@H](CC[C@@H]4[C@@]5(C)CC=C(C6CCC(CF)(C(=O)O)CC6)C(C)(C)[C@@H]5CC[C@]43C)[C@@H]12` (stereo partly drawn) [Example 23, 4-((1S,3aS,5aR,5bR,7aR,11aS,11bR,13aR,13bR)-3a-((2-(1,1-dioxidothiomorpholino)ethyl)amino)-1-isopropyl-5a,5b, 8,8,11a-pentamethyl-2,3,3a,4,5,5a,5b,6,7,7a,8,11,11a,11b,12,13,13a,13b-octadecahydro-1H-cyclopenta[a]chrysen-9-yl)-1-(fluoromethyl)cyclohexanecarboxylic acid]: the figures for the EC50 in test [1] (setting [3]) and in test [2] (setting [4]) were < 0.05 µM and > 0.05 µM, respectively.
As for `C=C(C)[C@@H]1CC[C@]2(NCCN3CC(C)S(=O)(=O)C(C)C3)CC[C@]3(C)[C@H](CC[C@@H]4[C@@]5(C)CC=C(C6=CC[C@@](CF)(C(=O)O)CC6)C(C)(C)[C@@H]5CC[C@]43C)[C@@H]12` (stereo partly drawn) [Example 24, (1R)-4-((1R,3aS,5aR,5bR,7aR,11aS,11bR,13aR,13bR)-3a-((2-(2,6-dimethyl-1,1-dioxidothiomorpholino)ethyl)amino)-5a,5b,8,8,11a-pentamethyl-1-(prop-1-en-2-yl)-2,3,3a,4,5,5a,5b,6,7,7a,8,11,11a,11b,12,13,13a,13b-octadecahydro-1H-cyclopenta[a]chrysen-9-yl)-1-(fluoromethyl)cyclohex-3-enecarboxylic acid], the results for the 50% effective concentration (EC50) in test [1] (setting [3]) and in test [2] (setting [4]) were < 0.05 µM and > 0.05 µM, respectively.
Regarding `C=C(C)[C@@H]1CC[C@]2(NCCN3CC(C)S(=O)(=O)C(C)C3)CC[C@]3(C)[C@H](CC[C@@H]4[C@@]5(C)CC=C(C6=CC[C@](CF)(C(=O)O)CC6)C(C)(C)[C@@H]5CC[C@]43C)[C@@H]12` (stereo partly drawn) [Example 25, (1S)-4-((1R,3aS,5aR,5bR,7aR,11aS,11bR,13aR,13bR)-3a-((2-(2,6-dimethyl-1,1-dioxidothiomorpholino)ethyl)amino)-5a,5b, 8,8,11a-pentamethyl-1-(prop-1-en-2-yl)-2,3,3a,4,5,5a,5b,6,7,7a,8,11,11a,11b,12,13,13a,13b-octadecahydro-1H-cyclopenta[a]chrysen-9-yl)-1-(fluoromethyl)cyclohex-3-enecarboxylic acid], the concentration for a half-maximal effect (EC50) was < 0.05 µM in test [1] (setting [3]) and > 0.05 µM in test [2] (setting [4]).

In general, EC50 refers to the concentration at which the effect is half-maximal.
